Reference: US7803803B2, “Tetrahydrofuro[3,2-B] pyrrol-3-ones as cathepsin K inhibitors” (Amura Therapeutics Limited, priority 2007, dated 2010)

Experiments:
[1] = Plasma incubations (human plasma stability); format: in vitro ADME; conditions: 37° C. Also: tested at 25 µM.
Protocol: Aliquots were removed at 2 and 60 minutes and quenched with an equal volume of cold acetonitrile. After mixing vigorously, the precipitated protein matter was removed by filtration (Multiscreen Solvinert filter plates, Millipore, Bedford, Mass., USA) and the filtrate analysed by reverse phase HPLC with mass spectrometric detection, using single ion monitoring of the [M+H]^+ species. Metabolic turnover was determined by comparison of peak areas from the ion chromatograms of the parent compound at 2 and 60 minutes and expressed as percent remaining at 1 hour.

cathepsin K = molecular target: T1, cathepsin K (Homo sapiens, UniProt P43235); test: In vitro cathepsin Ki inhibition measurements; format: biochemical; parameters: purchased B. Turk, Josef Stefan Institute, Ljubljana, Slovenia; conditions: human recombinant cathepsin K; read-out: In vitro Ki (nM) vs Cath K
T1 sequence (P43235 115-329): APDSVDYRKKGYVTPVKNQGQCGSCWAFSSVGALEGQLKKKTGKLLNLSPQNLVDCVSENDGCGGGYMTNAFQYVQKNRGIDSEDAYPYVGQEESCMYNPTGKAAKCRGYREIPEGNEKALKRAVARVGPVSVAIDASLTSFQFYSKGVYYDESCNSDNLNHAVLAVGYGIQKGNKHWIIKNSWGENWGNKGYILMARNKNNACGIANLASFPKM
Protocol: Stock solutions of substrate or inhibitor were made up to 10 mM in 100% dimethylsulfoxide (DMSO) (Rathburns, Glasgow, U.K.) and diluted as appropriately required. In all cases the DMSO concentration in the assays was maintained at less than 1% (vol./vol.). The equilibrium inhibition constants (Ki^SS) for each compound were measured under steady-state conditions monitoring enzyme activity as a function of inhibitor concentration. The values were calculated on the assumption of pure competitive behaviour (Cornish-Bowden, A. Fundamentals of enzyme kinetics Portland Press; 1995, 93-128). Human recombinant cathepsin K (0.25 nM final; B. Turk, Josef, Stefan Institute, Ljubljana, Slovenia), was routinely assayed in 100 mM sodium acetate; pH 5.5 containing 1 mM EDTA, 10 mM L-cysteine and 1.8 μM Z-Leu-Arg-AMC ([S]═KM).
The apparent inhibition constant (Ki) for each compound was determined on the basis that inhibition was reversible and occurred by a pure-competitive mechanism. The Ki values were calculated, from the dependence of enzyme activity as a function of inhibitor concentration, by direct regression analysis (Prism v 3.02) using Equation 2 (Cornish-Bowden, A., 1995).
In situations where the apparent dissociation constant (Ki^app) approached the enzyme concentrations, the Ki^app values were calculated using a quadratic solution in the form described by Equation 3 (Morrison, J. F. Trends Biochem. Sci., 7, 102-105, 1982; Morrison, J. F. Biochim. Biophys. Acta, 185, 269-286, 1969; Stone, S. R. and Hofsteenge, J. Biochemistry, 25, 4622-4628, 1986).
Curves were fitted by non-linear regression analysis (Prism) using a fixed value for the enzyme concentration. Equation 4 was used to account for the substrate kinetics, where ‘Ki’ is the inhibition constant, ‘[So]’ is the initial substrate concentration and ‘KM^app’ is the apparent macroscopic binding (Michaelis) constant for the substrate (Morrison, 1982).

LogD determinations = format: physicochemical; conditions: Ion-count method; for logD at 1 h: 1-octanol/phosphate buffered saline, pH 7.4, pH 7.4
Protocol: LogD(PBS) determinations were performed in 96 well microtitre plates using a miniaturised “shake-flask” method. […] The plates were then capped and mixed vigorously for 1 hour on a microtitre plate shaker, after which they were left to stand, allowing the PBS and octanol phases to separate. The PBS layer was analysed by reverse phase HPLC with mass spectrometric detection, using single ion monitoring of the [M+H]^+ species.
Where AUCstd and AUCpbs are the peak areas from the standard and test ion chromatograms respectively.

human osteoclasts = test: Human osteoclast resorption assay; format: cell-based; conditions: Homo sapiens, Osteoclast, 48 h, 1 □ M, read-out: Cell-based % Inh. @ 1 □ M Human
Protocol: Bone resorption was studied using a model where human osteoclast precursor cells were cultured on bovine bone slices for 9 days and allowed to differentiate into bone-resorbing osteoclasts. The formed mature osteoclasts were then allowed to resorb bone. The assay was performed by Pharmatest Services Ltd, Itäinen Pitkakatu 4C, Turku, Finland. After the culture period, bone collagen degradation products were quantified from the culture medium as an index of bone resorption. Inhibitor compounds were added into the cell cultures after the differentiation period and their effects on the resorbing activity of mature osteoclasts were determined. The studies included a baseline group without added compounds and a positive control group where a potent cathepsin K inhibitor E-64 was added.
Human peripheral blood monocytes were suspended to culture medium and allowed to attach to bovine bone slices. The bone slices were transferred into 96-well tissue culture plates containing culture medium with appropriate amounts of important growth factors favouring osteoclast differentiation, including M-CSF, RANK-ligand and TGF-[…]. The cells were incubated in a CO2 incubator in humidified atmosphere of 95% air and 5% carbon dioxide at 37° C. At day 7 when osteoclast differentiation was complete, the culture medium was replaced with culture medium containing conditions favouring osteoclast activity. The cell culture was continued for an additional 2 days, during which the formed mature osteoclasts were allowed to resorb bone in the presence of vehicle, control inhibitor (E64) or test compounds. At the end of the culture, bone collagen degradation products released into the culture medium were determined using a commercially available ELISA method (CrossLaps® for culture, Nordic Bioscience, Herlev, Denmark) as an index of bone resorption (see Bagger, Y. Z. et al, J. Bone. Miner. Res. 14 (suppl. 1), S370).

Row | SMILES | Human Plasma Stability % rem. @ 1 h [1] | Ki (cathepsin K) | logD at 1 h (LogD determinations) | LogD pH 7.4 (LogD determinations) | inhibition at 1 µM (human osteoclasts)
1 | CO[C@H]1CN(C(=O)[C@H](CC(C)(C)C)NC(=O)c2ccc(N3CCN(C)CC3)cc2)[C@@H]2C(=O)CO[C@H]12 [Example 2, N—((S)-1-((3aS,6S,6aS)-6-methoxy-3-oxodihydro-2H-furo[3,2-b]pyrrol-4(5H,6H,6aH)-yl)-4,4-dimethyl-1-oxopentan-2-yl)-4-(4-methylpiperazin-1-yl)benzamide] | 93% | 6.3 nM | > 0.8 | 1.00 | 63 to 88%
2 | CCN1CCN(c2ccc(C(=O)N[C@@H](CC(C)C)C(=O)N3C[C@H](OC)[C@H]4OCC(=O)[C@H]43)cc2)CC1 [Example 5, 4-(4-ethylpiperazin-1-yl)-N—((S)-1-((3aS,6S,6aS)-6-methoxy-3-oxodihydro-2H-furo[3,2-b]pyrrol-4(5H,6H,6aH)-yl)-4-methyl-1-oxopentan-2-yl)benzamide] | 96% | 5.8 nM | > 0.8 | 1.05 | 63 to 88%
3 | CCCN1CCN(c2ccc(C(=O)N[C@@H](CC(C)(C)C)C(=O)N3C[C@@H](OC)[C@H]4OCC(=O)[C@H]43)cc2)CC1 [Example 16, N—((S)-1-((3aS,6R,6aS)-6-methoxy-3-oxodihydro-2H-furo[3,2-b]pyrrol-4(5H,6H,6aH)-yl)-4,4-dimethyl-1-oxopentan-2-yl)-4-(4-propylpiperazin-1-yl)benzamide] | 97% | 3.7 nM | – | 1.69 | 63 to 88%
4 | COCCN1CCN(c2ccc(C(=O)N[C@@H](CC(C)C)C(=O)N3C[C@H](N)[C@H]4OCC(=O)[C@H]43)cc2)CC1 [Example 23, N—((S)-1-((3aS,6S,6aR)-6-amino-3-oxodihydro-2H-furo[3,2-b]pyrrol-4(5H,6H,6aH)-yl)-4-methyl-1-oxopentan-2-yl)-4-(4-(2-methoxyethyl)piperazin-1-yl)benzamide] | 88% | 11.2 nM | – | 0.55 | 25 to 54%
5 | COCCN1CCN(c2ccc(C(=O)N[C@@H](CC(C)C)C(=O)N3C[C@H](O)[C@H]4OCC(=O)[C@H]43)cc2)CC1 [Example 25, N—((S)-1-((3aS,6S,6aS)-6-hydroxy-3-oxodihydro-2H-furo[3,2-b]pyrrol-4(5H,6H,6aH)-yl)-4-methyl-1-oxopentan-2-yl)-4-(4-(2-methoxyethyl)piperazin-1-yl)benzamide] | 92% | 6.9 nM | – | 0.56 | 25 to 54%
6 | COCCN1CCN(c2ccc(C(=O)N[C@@H](CC(C)C)C(=O)N3C[C@@H](O)[C@H]4OCC(=O)[C@H]43)cc2)CC1 [Example 26, N—((S)-1-((3aS,6R,6aS)-6-hydroxy-3-oxodihydro-2H-furo[3,2-b]pyrrol-4(5H,6H,6aH)-yl)-4-methyl-1-oxopentan-2-yl)-4-(4-(2-methoxyethyl)piperazin-1-yl)benzamide] | 95% | 8.1 nM | – | 0.23 | 25 to 54%

Continued, in another order:

Row | Human Plasma Stability % rem. @ 1 h [1] | Ki (cathepsin K) | logD at 1 h (LogD determinations) | LogD pH 7.4 (LogD determinations) | SMILES | inhibition at 1 µM (human osteoclasts)
7 | 96% | 5.6 nM | > 0.8 | 1.18 | CO[C@H]1CN(C(=O)[C@H](CC(C)C)NC(=O)c2ccc(N3CCN(C)CC3)cc2)[C@@H]2C(=O)CO[C@H]12 [Example 1, N—((S)-1-((3aS,6S,6aS)-6-methoxy-3-oxodihydro-2H-furo[3,2-b]pyrrol-4(5H,6H,6aH)-yl)-4-methyl-1-oxopentan-2-yl)-4-(4-methylpiperazin-1-yl)benzamide] | 63 to 88%
8 | 89% | 5.6 nM | > 0.8 | 0.84 | CO[C@@H]1CN(C(=O)[C@H](CC(C)(C)C)NC(=O)c2ccc(N3CCN(C)CC3)cc2)[C@@H]2C(=O)CO[C@@H]21 [Example 4, N—((S)-1-((3aS,6R,6aS)-6-methoxy-3-oxodihydro-2H-furo[3,2-b]pyrrol-4(5H,6H,6aH)-yl)-4,4-dimethyl-1-oxopentan-2-yl)-4-(4-methylpiperazin-1-yl)benzamide] | 63 to 88%
9 | 93% | 9.9 nM | > 0.8 | 0.89 | CCN1CCN(c2ccc(C(=O)N[C@@H](CC(C)C)C(=O)N3C[C@@H](OC)[C@H]4OCC(=O)[C@H]43)cc2)CC1 [Example 7, 4-(4-ethylpiperazin-1-yl)-N—((S)-1-((3aS,6R,6aS)-6-methoxy-3-oxodihydro-2H-furo[3,2-b]pyrrol-4(5H,6H,6aH)-yl)-4-methyl-1-oxopentan-2-yl)benzamide] | 63 to 88%
10 | 92% | 9.2 nM | > 0.8 | 1.09 | CCN1CCN(c2ccc(C(=O)N[C@@H](CC(C)(C)C)C(=O)N3C[C@@H](OC)[C@H]4OCC(=O)[C@H]43)cc2)CC1 [Example 8, 4-(4-ethylpiperazin-1-yl)-N—((S)-1-((3aS,6R,6aS)-6-methoxy-3-oxodihydro-2H-furo[3,2-b]pyrrol-4(5H,6H,6aH)-yl)-4,4-dimethyl-1-oxopentan-2-yl)benzamide] | 63 to 88%
11 | 92% | 16.3 nM | > 0.8 | 1.34 | CCCN1CCN(c2ccc(C(=O)N[C@@H](CC(C)C)C(=O)N3C[C@@H](OC)[C@H]4OCC(=O)[C@H]43)cc2)CC1 [Example 15, N—((S)-1-((3aS,6R,6aS)-6-methoxy-3-oxodihydro-2H-furo[3,2-b]pyrrol-4(5H,6H,6aH)-yl)-4-methyl-1-oxopentan-2-yl)-4-(4-propylpiperazin-1-yl)benzamide] | 63 to 88%
12 | 91% | 8.4 nM | > 0.8 | 1.2 | CO[C@@H]1CN(C(=O)[C@H](CC(C)(C)C)NC(=O)c2ccc(N3CCN(C(C)C)CC3)cc2)[C@@H]2C(=O)CO[C@@H]21 [Example 22, 4-(4-isopropylpiperazin-1-yl)-N—((S)-1-((3aS,6R,6aS)-6-methoxy-3-oxodihydro-2H-furo[3,2-b]pyrrol-4(5H,6H,6aH)-yl)-4,4-dimethyl-1-oxopentan-2-yl)benzamide] | 63 to 88%
13 | 99% | 6.3 nM | > 0.8 | 1.23 | COCCN1CCN(c2ccc(C(=O)N[C@@H](CC(C)C)C(=O)N3C[C@H](OC)[C@H]4OCC(=O)[C@H]43)cc2)CC1 [Example 27, N—((S)-1-((3aS,6S,6aS)-6-methoxy-3-oxodihydro-2H-furo[3,2-b]pyrrol-4(5H,6H,6aH)-yl)-4-methyl-1-oxopentan-2-yl)-4-(4-(2-methoxyethyl)piperazin-1-yl)benzamide] | 63 to 88%
14 | 88% | 14.4 nM | – | 0.76 | COCCN1CCN(c2ccc(C(=O)N[C@@H](CC(C)C)C(=O)N3C[C@@H](OC)[C@H]4OCC(=O)[C@H]43)cc2)CC1 [Example 28, N—((S)-1-((3aS,6R,6aS)-6-methoxy-3-oxodihydro-2H-furo[3,2-b]pyrrol-4(5H,6H,6aH)-yl)-4-methyl-1-oxopentan-2-yl)-4-(4-(2-methoxyethyl)piperazin-1-yl)benzamide] | 25 to 54%
